Laboratory results from patent publication US20190136195A1, “COMPOSITION FOR TREATING TENDONITIS AND MANUFACTURE THEREOF” (Gwo Xi Stem Cell Applied Technology Co., Ltd., priority 2016, published 2019).
Entries after “also recorded” stand apart in the source; their conditions may differ.

Experiments:
Assay type in all cases: cell-based, Human
hADSCs = assay: Cell activity (MTT cell viability) of hADSC with butylidenephthalide; conditions: 24 and 48 hours
Protocol: hADSCs were seeded on a 96-well plate at a density of 3×10^3 cell/100 μl, and the 96-well plate was incubated at 37° C. in a humidified 5% CO2 atmosphere. After 16 hours, butylidenephthalide of various concentrations was added to the 96-well plate and then incubated at 37° C. in a 5% CO2 incubator. After 24 and 48 hours, the cell viability was determined. In cell viability assay, 100 μl of 10% MTT reagent was added to each well and then incubated in an incubator for 2 hours. 150 μl DMSO was added and mixed for 15 minutes. The absorbance (OD) of the aqueous solution was determined at 570 nm. According to FIG. 1, butylidenephthalide would not affect the cell activity if its concentration was blow 5 μg/ml. Therefore, 2.5 μg/ml of butylidenephthalide was selected to be used in the following experiments.

COL1A1 = assay: mRNA expression of tendon healing factors in hADSC: COL1A1; conditions: hADSC at 1×10^5 cell/ml, 2.5 μg/ml, 96 or 168 hours
Protocol: (§1) 20 ml of 1.0×10^5 or 0.2×10^5 cells/ml hADSCs in DMEM medium (10% fetal bovine serum, 1% L-glutamine, 1% non-essential amino acid (NEAA), and 1% sodium pyruvate) was placed on a 15-cm dish, mixed with 2.5 μg/ml butylidenephthalide, and then incubated at 37° C. in a 5% CO2 incubator for 96 hours. After the medium was removed and replaced with fresh medium, hADSCs was cultured under the same condition as described above until 168 hours.

SCX = assay: mRNA expression of tendon healing factors in hADSC: SCX; conditions: hADSC at 1×10^5 cell/ml, 2.5 μg/ml, 96 or 168 hours
Protocol: as §1

[1] = tested on: COL1 protein (collagen, COL1A1); assay: Protein expression of COL1A1 in hADSC; conditions: hADSC at 1×10^5 cell/ml, 2.5 μg/ml, 96 or 168 hours
Protocol: as §1

`CCCC=C1OC(=O)c2ccccc21` [butylidenephthalide, Butylidenephthalide] was tested, and the “concentration that would not affect the cell activity (MTT)” value (hADSCs) was less than 5000 ng/mL, the “COL1A1 mRNA expression” value (COL1A1) was “increased, significantly; also recorded: significant increase” and the “SCX mRNA expression” value (SCX) was “increased, significantly; also recorded: significant increase”. For the same compound, the COL1A1 protein expression [1] was “increased, significantly; also recorded: significant increase”.
